Measured values reported in PubChem BioAssay AID493003 (Sanford-Burnham Center for Chemical Genomics, 2010).
Active and inactive are the calls of the source. How the calls were made is not given here.

tested on: S. cerevisiae tim10-1 mutant growth, luminescence; assay: tim10-1 yeast growth inhibition potency – luminescence, S. cerevisiae, uHTS hits, dose response (AID 493003);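 further: yeast growth measured after about 22 hours at 25 °C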

| Structure (SMILES) | IC50 |
| --- | --- |
| N#C/C(=N/Nc1ccc(OC(F)(F)F)cc1)C(N)=S | 5.24 µM |
| S=c1[nH]nc(CSc2nc3ccccc3s2)n1C1CCCCC1 | > 100 µM (inactive) |
| CCCc1[nH]c2ccc(C#N)cc2c1CCC | 41.3 µM |
| CCCCCc1ccc(OCCCC[n+]2ccccc2)c(CCCCC)c1 | 24.8 µM |
| CC(/C=N/Nc1nc(C)cc(C)n1)=C\c1ccc(C(C)C)cc1 | 39.1 µM |
| CCOC(=O)c1sc(=S)n(Cc2ccccc2)c1N | 50.4 µM |
| CCOC(=O)/C=C/C(=O)Nc1cccc([N+](=O)[O-])c1 | 7.03 µM |
| COc1c(OC(C)=O)ccc(/C=C/c2ccc3ccccc3n2)c1[N+](=O)[O-] | 43.2 µM |
| Fc1ccccc1CNC(=S)Nc1cccc(C(F)(F)F)c1 | 10.5 µM |
| CCOC(=O)c1ccc2[nH]c3c(c2c1)CCCC3 | 34.4 µM |
| COc1ccc(NCc2nnc(SCc3ccc(Cl)cc3)n2-c2ccccc2)cc1 | 17.4 µM |
| CN=C(Nc1cc(Cl)ccc1Cl)SC1CC(=O)N(c2ccc(C(=O)OC)cc2)C1=O (stereo unspecified) | 12.6 µM |
| Cc1ccccc1NC1=NC(=S)N(c2ccccc2)C12CCCCC2 | 14.7 µM |
| COc1ccc2cc3cc(C(=O)NCCN4CCN(Cc5ccccc5)CC4)oc3nc2c1 | 27.9 µM |
| Cc1ccccc1OCC(=O)Nc1ccc(Cc2ccncc2)cc1 | 41.7 µM |
| CN(CCc1ccccn1)C1CC(=O)N(c2ccc(Cl)cc2)C1=O (stereo unspecified) | 24.7 µM |
| CC1(CC(=O)N/N=C/c2ccc(OCc3ccc(Cl)cc3Cl)cc2)OCCCO1 | 5.77 µM |
| CCn1c(=S)sc2c(=O)n(-c3ccccc3)c(SC)nc21 | 68.4 µM |
| C(=N\N1CCOCC1)/c1cn(-c2ccccc2)nc1-c1ccccc1 | 33.7 µM |
| CC(C)Cn1c2c(c(O)c(C(=O)Nc3nccs3)c1=O)CCCC2 | 96.8 µM |
| COc1cc(C(=O)Nc2ccc(Nc3ccccc3)cc2)cc(OC)c1OC | > 100 µM (inactive) |
| C=CCN(CC=C)S(=O)(=O)c1ccc(NC(=O)COc2ccccc2OC)cc1 | 77.3 µM |
| O=C(CNS(=O)(=O)c1c(Cl)cccc1Cl)OCc1csc(-c2ccccc2)n1 | 41 µM |
| CC(C)(C)C1CCc2nc(NC(=O)Cc3cn4ccsc4n3)sc2C1 (stereo unspecified) | 22.7 µM |

| Structure (SMILES) | IC50 |
| --- | --- |
| CCOC(=O)C1CCN(C2CC(=O)N(c3cccc(Cl)c3)C2=O)CC1 (stereo unspecified) | 37.2 µM |
| O=C(COc1ccc(Cl)cc1Cl)Nc1ccc(S(=O)(=O)NC2=NCCCCC2)cc1 | 24.5 µM |
| N/C(=N\OC(=O)CCC1CCCCC1)c1ccccn1 | 26.8 µM |
| CCOC(=O)c1sc2ncnc(NCc3ccco3)c2c1C | 30.5 µM |
| CCN(CC)C1CC(=O)N(c2cccc(Cl)c2)C1=O (stereo unspecified) | 9.25 µM |
| C=CC(=O)Oc1ccc(N2Cc3ccccc3C2=O)cc1 | 7.16 µM |
| O=C1C=C(NC(=O)Nc2ccc(Cl)c(Cl)c2)CCC1 | 95.6 µM |
| CN(C1CCCCC1)S(=O)(=O)c1ccc(NC(=O)c2ccc(Br)o2)cc1 | 30.6 µM |
| CCOc1ccccc1NC(=O)/C=C/C(N)=O | 14.4 µM |
| CCCOc1ccc(N2C(=O)CC(N3CCC(O)(c4cccc(C(F)(F)F)c4)CC3)C2=O)cc1 (stereo unspecified) | 13 µM |
| CCNC(=S)NNC(=O)c1cc(-c2cc(C)ccc2C)nc2ccccc12 | 24.3 µM |
| O=C(O)/C=C/C(=O)c1ccc2c(c1)CCc1ccccc1-2 | 10.9 µM |
| O=C(Nc1ccccc1)c1cccnc1NCCc1ccccc1 | 73.3 µM |
| CSc1ccccc1NC(=O)C1CC(c2c(F)cccc2Cl)=NO1 (stereo unspecified) | 25.9 µM |
| CC1=CC(C)(C)N2C(=O)C(=O)c3cc(OC(=O)c4ccco4)cc1c32 | 33.4 µM |
| COc1ccc(-c2cc(C(=O)N3CCN(c4ncccn4)CC3)c3ccccc3n2)c(OC)c1 | 28.5 µM |
| Cc1ccccc1C(=O)NC(=S)Nc1ccccc1N1CCCC1 | 17.3 µM |
| Cc1nn(-c2ccc(Cl)cc2)c2[nH]c(CCl)cc(=O)c12 | 33.5 µM |
| N/C(=N\OC(=O)c1cccc2ccccc12)c1ccncc1 | 40.8 µM |
| COc1ccc(-c2nncnn2)cc1 | 8.84 µM |
| N/C(=N\OC(=O)c1cccnc1)c1ccc(Cl)cc1Cl | 17.8 µM |
| CC/C(=N\NC(=S)Nc1cc(C)ccc1C)c1ccc(OC(F)F)cc1 | 34.9 µM |
| CCSc1nc2ccccc2n1C(=O)/C=C\c1ccc(OC)c(OC)c1 | 10.4 µM |
| CC1CCN(S(=O)(=O)c2ccc(NC(=O)Cc3cccs3)cc2)CC1 | 46.5 µM |

| Structure (SMILES) | IC50 |
| --- | --- |
| CC(=O)OC[C@]12CCC(C)=C[C@H]1O[C@@H]1[C@H](O)[C@@H](OC(C)=O)[C@@]2(C)[C@]12CO2 | 30.8 µM |
| COc1ccc(-c2nn(-c3ccccc3)cc2/C=C(\CC(=O)O)c2nc3ccccc3s2)cc1OC | 60.8 µM |
| NS(=O)(=O)c1ccc(NC(=S)Nc2ccc(Br)c(Cl)c2)cc1 | 31.8 µM |
| COc1cccc(-c2csc(N3CCN(C(=S)Nc4ccccc4Cl)CC3)n2)c1 | 21.3 µM |
| N/C(=N\S(=O)(=O)c1cc(C(F)(F)F)cc(C(F)(F)F)c1)c1ccc(Cl)cc1 | 49.7 µM |
| COc1ccc(C(=O)Nc2ccc(-n3nncc3C(C)(C)C)cc2)cc1 | 16.4 µM |
| CCOC(=O)c1c(-c2ccccc2)oc2cc(Br)c(O)cc12 | 20.6 µM |
| O=C(c1ccc2c(c1)OCCO2)N1CCN(c2ncc(C(F)(F)F)cc2Cl)CC1 | 68.8 µM |
| Fc1c(F)c(C(F)(F)F)c(F)c(F)c1N/N=C\c1cccs1 | 11 µM |
| CCOC(=O)N1CCN(S(=O)(=O)c2ccc(C(=O)N(CCN(CC)CC)c3nc4ccc(C)cc4s3)cc2)CC1 | 60.8 µM |
| O=C(C1CCC1)N1CCc2cc(S(=O)(=O)N3CCN(c4ccccn4)CC3)ccc21 | 24.3 µM |
| O=C1c2cccc(Cl)c2C(=O)c2c1cccc2N1CCCC1 | 18.4 µM |
| Cc1cc(N/N=C/c2ccccc2O)nc(-c2ccccc2O)n1 | 76.6 µM |
| Cc1ccc(NC(=S)/N=C(\N)Nc2nc(C)c3cc(C)ccc3n2)c(C)c1 | 12.7 µM |
| C=CCc1c(C)nc(-c2ccccc2)nc1N/N=C/c1ccccc1 | 26.2 µM |
| CC(C)(O)[C@H]1O[C@H]2CC[C@@]3(C)[C@@](O)(CC[C@H]4Cc5c([nH]c6ccccc56)[C@@]43C)C2=CC1=O | 33.5 µM |
| COC(=O)C(C(C)=O)C1=C/C(=N\S(=O)(=O)c2ccc(C)cc2)c2ccccc2C1=O (stereo unspecified) | 8.03 µM |
| O=C(NC(=S)Nc1cccc(C(F)(F)F)c1)c1csnn1 | 26 µM |
| CCOC(=O)c1ccc(N2C(=O)CC(N3CCC(Nc4ccc(F)cc4)CC3)C2=O)cc1 (stereo unspecified) | 55 µM |
| Cc1oc2cc(Br)c(O)c(Br)c2c1C(=O)c1ccccc1 | 25.9 µM |
| COc1ccc(/C=C2\CCc3ccccc3C2=O)cc1Cn1cccn1 | 25.6 µM |
| COC(=O)c1cc(NC(=S)Nc2cc(Cl)cc(Cl)c2)cc(C(=O)OC)c1 | 23 µM |
| CCOc1ccc(NC(=O)c2cccc3c2C(=O)N(Cc2cccnc2)C3)cc1 | 22.8 µM |
| CCOC(=O)Cc1nnc2c(Nc3ccc(Cl)cc3)nc3nonc3n12 | 41.1 µM |

| Structure (SMILES) | IC50 |
| --- | --- |
| C/C(=N\N=c1/sc2ccccc2n1C)c1ccccn1 | 45.7 µM |
| COc1ccccc1N1CCN(C(=O)c2cc3sccc3n2C)CC1 | 34.6 µM |
| O=C(NC(=S)Nc1ccccc1N1CCCC1)c1ccc([N+](=O)[O-])cc1 | 14 µM |
| O=[N+]([O-])/C(C(Cl)=C(Cl)Cl)=C(\Sc1ccccc1)N1CCCCC1 | 53 µM |
| CC(C)(C)c1cc(C(=O)N/N=C/c2ccc(F)cc2)n(-c2ccccc2)n1 | 36.4 µM |
| O=C(O)c1ccc(C=C(c2nc3ccccc3s2)c2nc3ccccc3s2)cc1 | > 100 µM (inactive) |
| COC(=O)COc1ccc(S(=O)(=O)N2CCN(c3ccccc3F)CC2)cc1C | > 100 µM (inactive) |
| Nc1nc(Nc2cccc(C(F)(F)F)c2)nc(C(F)(F)F)n1 | 23.4 µM |
| O=C(c1cc(COc2ccc(F)cc2Cl)on1)N1CCN(c2cnccn2)CC1 | 11.7 µM |
| CC(C)(C)c1ccc(CN2N=Nc3ccccc3S2(=O)=O)cc1 | 6.1 µM |
| Cc1cc(N/N=C/c2ccc(Cl)cc2)nc(NCc2ccccc2)n1 | 36.6 µM |
| Cc1[nH]n(-c2ccccc2)c(=O)c1C(c1ccccc1[N+](=O)[O-])C(C#N)C#N (stereo unspecified) | 18.2 µM |
| CCC(CO)Nc1nc2ccc(Cl)cc2c2ccccc12 (stereo unspecified) | 17 µM |
| CNc1nc(-c2ccccn2)nnc1-c1ccccc1 | 29.8 µM |
| Cc1ccc(N2C(=O)CC(Sc3cccs3)C2=O)cc1 (stereo unspecified) | 24 µM |
| Cc1ccc(S(=O)(=O)Nc2ccc(N=Nc3ccc(O)cc3)cc2)cc1 | 20.9 µM |
| COCCNC(=S)N1CCN(c2nc(-c3ccccc3)cs2)CC1 | > 100 µM (inactive) |
| Cc1ccccc1SCC(=O)Nc1cc(C(F)(F)F)ccc1N1CCOCC1 | 28.4 µM |
| O=C(Nc1cccc(Cl)c1)N1N=CCC1c1ccccc1 (stereo unspecified) | 29.6 µM |
| COc1ccccc1C(=O)Nc1ccc(S(=O)(=O)N2CCCCC2)cc1 | 24.9 µM |
| Cc1nn(Cc2ccc(Cl)cc2)c(C)c1NC(=O)c1noc2c1CCCCC2 | 23.5 µM |
| O=C(OCn1ncc(Br)c(Br)c1=O)c1ccccc1Cl | 6.12 µM |
| Cn1c(NCCCO)nc2c(c1=O)C1(CCCCC1)Cc1ccccc1-2 | 12.3 µM |
| COc1ccc(CCNC(=O)NC23CC4CC(CC(C4)C2)C3)cc1 | 51 µM |

| Structure (SMILES) | IC50 |
| --- | --- |
| O=C(NC(=S)NCc1ccccc1)c1ccccc1F | 66.5 µM |
| N/C(=N\OC(=O)CCC1CCCC1)c1cccc([N+](=O)[O-])c1 | 6.48 µM |
| N/C(=N\OC(=O)CC(c1ccccc1)c1ccccc1)c1cccnc1 | 41.8 µM |
| CN(C)CCCN(C(=O)c1ccc(Cl)s1)c1nc2cc3c(cc2s1)OCO3 | 29.4 µM |
| C/C(=N\NC(=S)NCc1ccccc1)c1ccc(Cl)s1 | 16.4 µM |
| Nc1nc(Nc2ccccc2)nc2ccccc12 | 28.1 µM |
| FC(F)Sc1ccc(NC(=S)NC2CCCC2)cc1 | 20.8 µM |
| O=C(Nc1ncc2c(n1)-c1ccccc1CC2)c1cccc(Cl)c1 | 52.7 µM |
| CC(C)(C)c1ccc(C(=O)CC(Sc2ccc(Cl)cc2)C(=O)O)cc1 (stereo unspecified) | 27.6 µM |
| CSc1ccc2nnc(-c3cccc(F)c3)n2n1 | 29.6 µM |
| Cc1ccc(C(=O)N2CCN(c3ccc(NC(=O)c4ccc(Br)o4)cc3)CC2)cc1 | 32.2 µM |
| Clc1ccc(Nc2nc(C3CC3)cs2)cc1 | 39.8 µM |
| Oc1cc(-c2ccccc2)c2ccccc2c1 | 74.2 µM |
| COc1ccccc1N1CCN(CC(=O)Nc2ccc(Cl)c(C(F)(F)F)c2)CC1 | 58.7 µM |
| CSc1nc(N)nc(-c2cccs2)c1C#N | 32.5 µM |
| CN(/N=C/c1ccc([N+](=O)[O-])o1)c1ccccc1 | 32.7 µM |
| CCc1c(C)c2c(C)nn(-c3ccccc3)c2oc1=O | 17.2 µM |
| O=C1CC(Sc2nnnn2-c2ccccc2)C(=O)N1c1cccc(Cl)c1 (stereo unspecified) | 9.03 µM |
| CC(NC(=O)Nc1cccc([N+](=O)[O-])c1)(C(F)(F)F)C(F)(F)F | 57.2 µM |
| O=C1CN(C(=O)/C=C/c2cccc(Cl)c2)c2ccccc2N1 | 30.3 µM |
